Measured values: patent publication US11571413B2, “Nicotinamide riboside treatments of domesticated meat animals” (Kansas State University Research Foundation, priority 2017, dated 2023)
Marks after values point to notes of the source that are not given here.

Legend:
growing pigs = test: Longissimus lumborum muscle fiber distribution and succinate dehydrogenase staining (Example III); type: in vivo, pig; conditions: 30 mg/kg BW, 7 days; numerical
Method: Nine growing pigs were blocked by bodyweight (BW) and placed in metabolism crates. After a 3-day acclimation period, pigs within each BW block were randomly assigned to a treatment (n=3 pigs/treatment). Treatments comprised pigs supplemented 0, 15, or 30 mg/kg BW NR for 7 days. Pigs were allowed ad libitum access to a standard growing diet and water. Treatments were administered daily at 8 a.m. by mixing NR in 20 mL of Karo® dark syrup and orally drenching the pigs. On day 0 and 3 of the trial, muscle biopsies of the LL were taken for NAD+ analysis using standard procedures. At day 7, pigs were transported to the Kansas State University Meats Laboratory and euthanized by a captive penetrating bolt to the brain, followed by exsanguination. Following harvest procedures, 3 g of the LL were collected for NAD+ analysis. Twenty-four hours after harvest, the whole LL not sampled at harvest was removed from the carcass and aged 10 days. After aging, the LL was cut into 6 chops for retail color stability analysis, including 6-day surface oxy- and metmyoglobin percentage, 6-day objective and subjective color panel evaluation, and day 4 and 6 metmyoglobin reducing ability (MRA).

[1] = test system: Fertilized broiler eggs (Cobb 500); test: NR concentration on avian embryonic myogenesis, d 19 embryo morphometrics (Example II); type: in vivo, chicken; conditions: 100 μl into yolk d 10, d 19 embryos
Method: Fertilized broiler eggs (n=60; Cobb 500) were randomly assigned to 1 of 4 treatments: 0.0, 250, 500, or 1,000 mM NR in sterile saline. At day 10 of incubation, 100 μl of treatment solution was injected into the egg yolk. Eggs were incubated at 37±3° C. and a relative humidity of 40±2%. At day 19 of incubation, embryos were euthanized by prolonged exposure to CO2 gas and decapitation. Measurements including: embryo weight; crown-rump length; chest circumference (CC); and left Pectoralis major (PM) weight, length, width, and depth were collected.

NC(=O)c1ccc[n+]([C@@H]2O[C@H](CO)[C@@H](O)[C@H]2O)c1 [Nicotinamide riboside, nicotinamide riboside]
Muscle fiber distribution vs 0 mg/kg LL (growing pigs): less type 2B (glycolytic) fibers and more type 1 and 2A (oxidative) fibers
Succinate dehydrogenase staining in type 2B fibers vs other two treatments (growing pigs): more intense staining
Body weight ([1]; 250 mM NR): 46.42 g
Chest circumference ([1]; 250 mM NR): 6.0^a,b cm
Crown to rump length ([1]; 250 mM NR): 83.69^a mm
Head circumference ([1]; 250 mM NR): 5.3^a cm
Head length ([1]; 250 mM NR): 17.70 mm
Head width ([1]; 250 mM NR): 15.42 mm
Organ weight, heart ([1]; 250 mM NR): 0.23 g
Organ weight, liver ([1]; 250 mM NR): 0.74 g
Pectoralis major length ([1]; 250 mM NR): 16.73^b mm
Pectoralis major maximum thickness ([1]; 250 mM NR): 2.56^b mm
Pectoralis major weight ([1]; 250 mM NR): 0.13^a,b g
Pectoralis major width ([1]; 250 mM NR): 4.90^a,b mm
Body weight ([1]; 500 mM NR): 46.25 g
Chest circumference ([1]; 500 mM NR): 6.3^b cm
Crown to rump length ([1]; 500 mM NR): 85.14^a mm
Head circumference ([1]; 500 mM NR): 5.6^b cm
Head length ([1]; 500 mM NR): 17.60 mm
Head width ([1]; 500 mM NR): 15.49 mm
Organ weight, heart ([1]; 500 mM NR): 0.23 g
Organ weight, liver ([1]; 500 mM NR): 0.72 g
Pectoralis major length ([1]; 500 mM NR): 17.51^b mm
Pectoralis major maximum thickness ([1]; 500 mM NR): 2.36^a,b mm
Pectoralis major weight ([1]; 500 mM NR): 0.16^b g
Pectoralis major width ([1]; 500 mM NR): 5.32^b mm
Body weight ([1]; 1,000 mM NR): 45.97 g
Chest circumference ([1]; 1,000 mM NR): 6.6^b cm
Crown to rump length ([1]; 1,000 mM NR): 88.20^b mm
Head circumference ([1]; 1,000 mM NR): 5.7^b cm
Head length ([1]; 1,000 mM NR): 17.98 mm
Head width ([1]; 1,000 mM NR): 15.69 mm
Organ weight, heart ([1]; 1,000 mM NR): 0.24 g
Organ weight, liver ([1]; 1,000 mM NR): 0.67 g
Pectoralis major length ([1]; 1,000 mM NR): 17.44^b mm
Pectoralis major maximum thickness ([1]; 1,000 mM NR): 2.64^b mm
Pectoralis major weight ([1]; 1,000 mM NR): 0.15^b g
Pectoralis major width ([1]; 1,000 mM NR): 5.61^b mm
